Measurements: patent publication US10888547B2, “Amorphous and a crystalline form of genz 112638 hemitartrate as inhibitor of glucosylceramide synthase” (Genzyme Corporation, priority 2009, dated 2021)

Key:
[1] = Approximate solubility in organic solvents from solvent addition; assay type: physicochemical; conditions: organic solvent or mixture, thermodynamic from solid, room temperature (20-25° C.)
Description: A weighed sample (usually 20 mg) was treated with aliquots of the test solvent. Aliquots were typically 100-200 μL. Between solvent additions, the mixture was shaken or sonicated. When the solids dissolved, as judged by visual inspection, the solution was allowed to evaporate under ambient conditions in an open vial covered with aluminum foil perforated with pinholes. Solubilities were estimated from these experiments based on the total solvent added to obtain a clear solution.

[2] = target: T1, Non-lysosomal glucosylceramidase (GBA2) (Homo sapiens, UniProt Q9HCG7); assay: Non-lysosomal glucosylceramidase in intact human cells, C6-NBD-glucosylceramide substrate; assay type: cell-based; conditions: read-out: Enzyme specificities, IC50: Non-lysosomal glucosylceramidase (GBA2)
T1 construct: were assayed in intact human cells using C6-NBD-glucosylceramide as substrate; endogenous in cells
T1 sequence (Q9HCG7 1-927): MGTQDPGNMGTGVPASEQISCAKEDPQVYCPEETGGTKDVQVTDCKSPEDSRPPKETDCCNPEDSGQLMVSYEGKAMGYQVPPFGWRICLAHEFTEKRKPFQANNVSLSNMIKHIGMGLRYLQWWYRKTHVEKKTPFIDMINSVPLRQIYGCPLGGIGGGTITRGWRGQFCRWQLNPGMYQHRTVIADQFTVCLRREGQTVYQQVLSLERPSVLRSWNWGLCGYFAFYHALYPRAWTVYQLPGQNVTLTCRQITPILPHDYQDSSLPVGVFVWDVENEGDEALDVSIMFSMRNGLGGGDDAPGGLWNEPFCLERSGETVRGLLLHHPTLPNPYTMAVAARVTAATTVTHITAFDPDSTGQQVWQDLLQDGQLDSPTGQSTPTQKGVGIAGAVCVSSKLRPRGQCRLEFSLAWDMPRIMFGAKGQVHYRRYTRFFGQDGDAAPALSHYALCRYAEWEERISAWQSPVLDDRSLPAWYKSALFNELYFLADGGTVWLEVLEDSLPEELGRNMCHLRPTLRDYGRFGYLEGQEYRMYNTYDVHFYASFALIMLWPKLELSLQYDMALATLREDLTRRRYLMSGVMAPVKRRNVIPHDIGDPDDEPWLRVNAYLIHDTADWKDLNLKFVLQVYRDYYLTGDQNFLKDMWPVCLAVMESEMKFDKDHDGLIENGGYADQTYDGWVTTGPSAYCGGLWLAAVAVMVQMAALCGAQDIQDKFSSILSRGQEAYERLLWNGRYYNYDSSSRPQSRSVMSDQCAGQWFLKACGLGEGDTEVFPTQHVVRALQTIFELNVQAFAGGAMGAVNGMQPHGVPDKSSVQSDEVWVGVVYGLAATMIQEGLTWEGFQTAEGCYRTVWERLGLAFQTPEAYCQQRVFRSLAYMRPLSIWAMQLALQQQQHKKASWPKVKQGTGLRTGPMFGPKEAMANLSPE
Description: Non-lysosomal glucosylceramidase and lysosomal glucocerebrosidase were assayed in intact human cells using C6-NBD-glucosylceramide as substrate (see H. S. Overkleeft, et al. J. Biol. Chem. 273 (1998) 26522-26527, the entire teachings of which are incorporated herein by reference). Conduritol β epoxide (a specific inhibitor of lysosomal glucocerebrosidase) was used to differentiate lysosomal versus the non-lysosomal activity. Glucocerebrosidase activity was also measured by fluorescence-activated cell sorting (FACS). […] Cells were immediately chilled on ice and the fluorescence quantitated is above.

## CCCCCCCC(=O)N[C@H](CN1CCCC1)[C@H](O)c1ccc2c(c1)OCCO2 [Formula (I) Hemitartrate]
[1]; Acetone
  solubility: < 5000 µg/mL
[1]; Acetonitrile
  solubility: < 5000 µg/mL
[1]; Dichloromethane
  solubility: 100000 µg/mL
[1]; Ethanol
  solubility: 29000 µg/mL
[1]; Ethyl Acetate
  solubility: < 5000 µg/mL
[1]; Isopropyl alcohol
  solubility: < 5000 µg/mL
[1]; Methanol
  solubility: > 200000 µg/mL
[1]; Methyl t-butyl ether (TBME)
  solubility: < 5000 µg/mL
[1]; Tetrahydrofuran (THF)
  solubility: < 5000 µg/mL
[1]; Toluene
  solubility: < 5000 µg/mL
[1]; p-Dioxane
  solubility: < 5000 µg/mL
[2]
  IC50: 1600 µM
